Assay [1] addresses T1, RORγt (Homo sapiens, UniProt P51449).
T1 construct: gene RORC; RORγt-LBD
Description: FRET coactivator-peptide recruitment assay with human RORγt-LBD (inverse agonist, max. -[…]). Format: binding.

The target in assay [2] is T1, RORγt. Description: FRET coactivator-peptide recruitment assay with human RORγt-LBD (agonist, max. act. […]). Format: binding.

SMILES strings stand for the structures.

T1 sequence (Q15788 2-1441): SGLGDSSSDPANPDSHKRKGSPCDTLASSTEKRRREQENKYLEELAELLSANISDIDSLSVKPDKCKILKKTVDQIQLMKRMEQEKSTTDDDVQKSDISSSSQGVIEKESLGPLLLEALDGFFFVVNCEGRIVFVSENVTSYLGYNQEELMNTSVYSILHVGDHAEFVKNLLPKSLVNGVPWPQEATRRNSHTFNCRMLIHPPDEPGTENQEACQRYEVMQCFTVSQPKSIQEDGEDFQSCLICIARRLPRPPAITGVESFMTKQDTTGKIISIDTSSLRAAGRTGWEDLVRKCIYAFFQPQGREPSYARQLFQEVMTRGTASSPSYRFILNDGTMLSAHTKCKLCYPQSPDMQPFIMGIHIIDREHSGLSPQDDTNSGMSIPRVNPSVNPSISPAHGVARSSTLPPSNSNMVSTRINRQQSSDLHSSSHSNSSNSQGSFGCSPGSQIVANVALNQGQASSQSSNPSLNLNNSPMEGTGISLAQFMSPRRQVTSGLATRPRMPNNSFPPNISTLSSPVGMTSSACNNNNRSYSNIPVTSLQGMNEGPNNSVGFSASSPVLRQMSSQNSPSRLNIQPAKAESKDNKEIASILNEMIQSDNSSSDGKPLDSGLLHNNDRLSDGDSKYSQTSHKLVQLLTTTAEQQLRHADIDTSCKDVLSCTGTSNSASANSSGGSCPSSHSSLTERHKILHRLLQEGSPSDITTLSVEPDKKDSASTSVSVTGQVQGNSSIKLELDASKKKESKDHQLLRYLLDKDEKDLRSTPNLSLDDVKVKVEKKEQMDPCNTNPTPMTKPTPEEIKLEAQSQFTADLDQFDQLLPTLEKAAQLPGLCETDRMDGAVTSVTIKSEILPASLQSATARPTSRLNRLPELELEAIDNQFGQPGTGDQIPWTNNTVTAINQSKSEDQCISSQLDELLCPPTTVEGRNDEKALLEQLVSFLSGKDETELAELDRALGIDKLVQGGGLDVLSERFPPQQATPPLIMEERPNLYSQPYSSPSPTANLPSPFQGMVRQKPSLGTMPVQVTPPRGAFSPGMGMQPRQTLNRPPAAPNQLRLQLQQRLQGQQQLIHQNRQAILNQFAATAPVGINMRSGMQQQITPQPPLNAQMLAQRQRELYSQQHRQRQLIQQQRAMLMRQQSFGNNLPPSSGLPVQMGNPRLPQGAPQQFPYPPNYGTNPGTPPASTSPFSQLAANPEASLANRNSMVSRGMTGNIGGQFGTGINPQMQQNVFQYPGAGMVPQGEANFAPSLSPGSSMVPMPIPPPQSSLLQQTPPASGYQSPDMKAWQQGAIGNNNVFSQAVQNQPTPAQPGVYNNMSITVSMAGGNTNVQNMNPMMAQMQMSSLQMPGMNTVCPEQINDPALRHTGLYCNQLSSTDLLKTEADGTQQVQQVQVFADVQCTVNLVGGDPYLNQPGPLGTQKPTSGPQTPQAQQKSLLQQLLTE
T1 sequence (P51449 265-507): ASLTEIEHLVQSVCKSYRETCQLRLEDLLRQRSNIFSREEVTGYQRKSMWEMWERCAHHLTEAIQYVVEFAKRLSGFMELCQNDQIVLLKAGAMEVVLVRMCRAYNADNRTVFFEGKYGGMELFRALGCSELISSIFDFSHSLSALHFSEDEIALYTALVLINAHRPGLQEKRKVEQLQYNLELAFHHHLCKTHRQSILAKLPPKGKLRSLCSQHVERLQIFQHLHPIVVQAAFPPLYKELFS

For orientation: IC50 means the point on the concentration scale where inhibition reaches its midpoint. Read a low IC50 as greater potency. The compound `CC(=O)N1CCN(c2ccc(N(C3CCC3)S(=O)(=O)Cc3ccccc3)cc2)CC1` [GT] displayed an IC50 in assay [1] of 0.053 µM.

Broadly, the EC50 is the concentration giving half of the maximal effect. Lower therefore signals an effect from little substance. As for `CC(=O)N1CCN(c2ccc3c(c2)CCCN3S(=O)(=O)c2ccccc2)CC1` [compound 1, agonist 1], in assay [2], a half-maximal effect (EC50) was put at 3.7 µM.

These data come from publication PMC6321388, “Molecular Mechanism of Action of RORγt Agonists and Inverse Agonists: Insights from Molecular Dynamics Simulation” (Molecules, 2018).
